The values below come from EP2042178A1, “Ocular formulations comprising 5-chlorouracil and use thereof” (INSTITUT NATIONAL DE LA SANTE ET DE LA RECHERCHE MEDICALE …, priority 2007, dated 2009).

In brackets after ≈: the same amount, converted by molar mass. Read-outs that look alike come from different tables or passages of the source. Where only a bound is given, the exact number is not on record here.

The test system of one series is rabbit fibroblasts. Kind of series: Trypan blue exclusion test / cell counting, fibroblast proliferation. The conditions noted are these: for concentration at which inhibition of cell proliferation is significant: 24 hours exposure; for inhibition at 10 µg/mL / inhibition at 20 µg/mL / inhibition at 100 µg/mL: Oryctolagus cuniculus, Fibroblast, 24 h, read-out: inhibition of cell proliferation.

The subject of series [1] is rabbit Tenon's capsule fibroblasts. The following applies: for cell death: sub-confluent fibroblasts, 24 hours. As for the experimental part: Cells were seeded at a density of 2 x 10^4 cells / well until reaching subconfluency and were then treated with 5-chlorouracil (5-CU) or with 5-fluorouracil (5-FU) at different concentrations (0, 0.5, 5, 50, 500, 1'000 or 5'000 µg/ml) for 24 hours.
MTT (Sigma) (1mg/ml in PBS) was added to the wells and plates were incubated at 37°C for 1 hour. Isopropanol was then added and mixed thoroughly to dissolve the dark blue crystals and the plates were rapidly read on a BIO-RAD Model 450 Microplate reader, using a test wavelength of 570 nm and a reference wavelength of 630 nm.

Series [2] has as its system human conjunctival cell line (Wong-Kilbourne derivative of Chang conjunctiva). The experiment in a line: Hoechst 33342 test (chromatin condensation, with propidium iodide). The format is cell-based. The conditions noted are these: for chromatin condensation compared to control cells: up to 1 µg/ml; for chromatin condensation: increasing concentrations >1 µg/ml. As for the experimental part: (§1) Normal culture development was assessed daily by phase-contrast microscopy. Confluent cultures were removed by gentle trypsin incubation, and cells were counted. For cytotoxicity experiments, cells were seeded into 96-well culture plates (18'000 cells per well; Nunc, Roskild, Denmark) until sub-confluence (culture surface covering nearly 70%) and were then exposed to the different formulations. Experiments were performed by microplate cold light fluorometry (Fluorolite 1000 Dynex; Issy-les-Moulineaux, France), as previously validated (Debbasch et al., 2001, Invest. Ophthalmol. Vis. Sci., 42, 642-652). According to the recommendations of the European Center for the Validation of Alternative Methods (ECVAM) and to previously validated methods in the Chang cell line, two cellular markers were evaluated: cellular viability and chromatin condensation. Cellular viability was evaluated with a neutral red (Fluka, Ronkonkoma, NY) test with fluorometric detection (excitation: 535 nm; emission: 600 nm). Hoechst 33342 (Molecular Probes, Eugene, OR) is an intercalating dye, which allows the determination of the total chromatin quantity variations and the degree of chromatin condensation. […] was used on cells at a final concentration of 10 µg/ml (excitation: 360 nm; emission: 450 nm). 0.5 mg/ml propidium iodide (Roche Diagnostics Corp., Meylan, France) was added to the Hoechst solution, to control necrotic cells, as previously validated. The supravital uptake of Hoechst 33342 combined with extrusion of propidium iodide was used as an assay for apoptosis as described in Belloc et al., 1994, Cytometry, 17, 59-65. […] It is defined by a series of cellular changes: (a) the cell shrinks, looses contact with neighbouring cells or surrounding matrix and starts to display intracellular proteins on its surface; (b) the chromatin in the nucleus condenses and the DNA is cleaved into small fragments; (c) the plasma membrane then begins to show a bubbled appearance and small membrane bound bodies break off containing intracellular material which can include nuclear matter and cellular organelles. These fragments are known as "apoptotic bodies" which are quickly removed by phagocytes or by neighbouring cells.
The value of IC50 (concentration inhibiting 50% of cell population) was used to compare 5-FU and 5-CU cytotoxicities. Dulbecco's minimum essential medium was used as a control, and was used to dilute the tested molecules.

Series [3] can be described thus: In vitro rate of release from POE IV formulation. The format is physicochemical. As for the experimental part:
Formulations were prepared under a laminar airflow hood. […] The viscous mixture was conditioned in a 1.0 ml syringe, each sample being 200µl (240 mg). In a preliminary investigation, the in vitro rate of release of 5-CU was determined according to the procedure described by Merkli et al., 1998, J. Control. […] 5-FU in vitro rate of release from POE IV has also previously been described by Heller et al, 2005, Adv. Drug Delivery Rev., 57(14)2053-62.

The subject of series [4] is human conjunctival cell line (Wong-Kilbourne derivative of Chang conjunctiva). The experiment in a line: Neutral red test (cellular viability). The following applies: for cell viability decrease: concentrations up to 10 µg/ml; for IC50: Homo sapiens, 72 hours of exposure. The format is cell-based. As for the experimental part: as §1
In these experiments, cell viability and chromatin condensation were evaluated after a 24 and 72 hour-incubation, with […] of 5-chlorouracil as compared with the same concentrations of 5-fluorouracil. The value of IC50 (concentration inhibiting 50% of cell population) was used to compare 5-FU and 5-CU cytotoxicities. Dulbecco's minimum essential medium was used as a control, and was used to dilute the tested molecules.

For series [5] the following is noted: same conditions, Heller et al., 2005; cited from earlier work.
The conditions of series [6]: sub-conjunctival injection, cited from earlier work.
The mark [7] stands for this setting: Hoechst and neutral red results combined, 72 hours of exposure.
Setting [8] is: Hoechst test, high concentrations.

With `O=c1[nH]cc(Cl)c(=O)[nH]1` [5-CU, 5-chloro-1H-pyrimidine-2,4-dione], in the series on rabbit fibroblasts, the “concentration at which inhibition of cell proliferation is significant” value was no less than 10 µg/mL, the inhibition at 10 µg/mL was 23%, the inhibition at 20 µg/mL turned out to be 23% and the inhibition at 100 µg/mL stood at 25%. Moreover, the “times less toxic to non-proliferating cells than 5-FU” value in series [1] (rabbit, 24 h) was 1'000 times. Besides, the cell death in series [1] (5'000 µg/ml) is given as 33%. Also, the “Hoechst fluorescence compared with identical 5-FU concentrations” value in series [2] (24 hours, increasing concentrations up to 1'000 µg/ml, P=0.0079) was “very significant increase”. The “chromatin condensation compared to control cells” value in series [2] (24 hours) is recorded as “no significant difference”. Further, the “type of cell death induced” value in series [2] (setting [7]) is “apoptotic cell death”. Moreover, the “type of cell death induced” value in series [2] (setting [8]) is on record as “apoptotic cell death”. Moreover, in series [3] (1% 5-CU from POE IV formulation, for up to forty days), the daily release rate result is on record as “approximately 8 µg/day”. Besides, in series [3] (from POE IV, 1% wt/wt, over a period of up to 40 days, preliminary investigation), the “in vitro rate of release” value came to 8 micrograms per day. Moreover, the cell death in series [4] (24 hour-incubation, 1'000 µg/ml) is 35%. The cell viability decrease entry in series [4] (24 hour-incubation) is “about 20%”. The cell death in series [4] (72 hour-incubation, 4 mg/ml (highest concentration)) came to 75%. The molecule also displayed an IC50 in series [4] of 2500 µg/mL (≈ 17.1 mM).
As to `O=c1[nH]cc(F)c(=O)[nH]1` [5-FU, 5-fluorouracil], in the series on rabbit fibroblasts, the “concentration at which inhibition of cell proliferation is significant” value was no less than 10 µg/mL. In addition, in the series with rabbit fibroblasts, the inhibition at 10 µg/mL was determined as 28%. In addition, in the series with rabbit fibroblasts, the inhibition at 20 µg/mL is 40%. Further, the inhibition at 100 µg/mL with rabbit fibroblasts was 43%. Besides, the cell death in series [1] (5 µg/ml) is 39.1%; in series [1] (50 µg/ml), 51%; in series [4] (24 hour-incubation, 100 µg/ml), 55%. In series [5], the “in vitro rate of release from POE IV” value was 100 µg per day. In addition, the chromatin condensation entry is on record as “dose-dependant significant decrease” in series [2] (24 hours, P=0.0079) and “dose-dependant significant decrease” in series [2] (72 hours, P=0.02). The “chromatin condensation compared to control cells” value in series [2] (24 hours) is given as “no significant difference”. For the same molecule, the “type of cell death induced” value in series [2] (setting [7]) is listed as “apopto-necrotic cell death”; in series [2] (setting [8]) it was “necrotic cell death”. Besides, the corneal levels in series [6] (at 1 hour) is 20 µg/g; in series [6] (at 24 hours), 5 µg/g. Also, the “time for which ID50 levels are maintained” value in series [6] (at the injection site and 180° from it) is given as “up to 24 hours”. Moreover, the cell viability decrease result in series [4] (24 hour-incubation) was “about 20%”. In addition, the cellular viability result in series [4] (72 hour-incubation, 1 µg/ml) is “significantly decreased”. For the same molecule, the IC50 in series [4] was 7 µg/mL (≈ 0.0538 mM).

What is called IC50 is the concentration that gives 50% inhibition. Read a high IC50 as weaker potency in that assay.
